Results taken from patent US9884063B2, “Amido-substituted azole compounds” (Bayer Pharma Aktiengesellschaft, priority 2014, dated 2018).

The compounds below were run against T1, TNKS2 (Homo sapiens, UniProt Q9H2K2) (assay: Modified TNKS2 Assay 3 (BPS kit #80578, biotin-NAD+, 96 well)). Details: human TNKS2, BPS kit #80578, 96 well.
T1 sequence (Q9H2K2 1-1166): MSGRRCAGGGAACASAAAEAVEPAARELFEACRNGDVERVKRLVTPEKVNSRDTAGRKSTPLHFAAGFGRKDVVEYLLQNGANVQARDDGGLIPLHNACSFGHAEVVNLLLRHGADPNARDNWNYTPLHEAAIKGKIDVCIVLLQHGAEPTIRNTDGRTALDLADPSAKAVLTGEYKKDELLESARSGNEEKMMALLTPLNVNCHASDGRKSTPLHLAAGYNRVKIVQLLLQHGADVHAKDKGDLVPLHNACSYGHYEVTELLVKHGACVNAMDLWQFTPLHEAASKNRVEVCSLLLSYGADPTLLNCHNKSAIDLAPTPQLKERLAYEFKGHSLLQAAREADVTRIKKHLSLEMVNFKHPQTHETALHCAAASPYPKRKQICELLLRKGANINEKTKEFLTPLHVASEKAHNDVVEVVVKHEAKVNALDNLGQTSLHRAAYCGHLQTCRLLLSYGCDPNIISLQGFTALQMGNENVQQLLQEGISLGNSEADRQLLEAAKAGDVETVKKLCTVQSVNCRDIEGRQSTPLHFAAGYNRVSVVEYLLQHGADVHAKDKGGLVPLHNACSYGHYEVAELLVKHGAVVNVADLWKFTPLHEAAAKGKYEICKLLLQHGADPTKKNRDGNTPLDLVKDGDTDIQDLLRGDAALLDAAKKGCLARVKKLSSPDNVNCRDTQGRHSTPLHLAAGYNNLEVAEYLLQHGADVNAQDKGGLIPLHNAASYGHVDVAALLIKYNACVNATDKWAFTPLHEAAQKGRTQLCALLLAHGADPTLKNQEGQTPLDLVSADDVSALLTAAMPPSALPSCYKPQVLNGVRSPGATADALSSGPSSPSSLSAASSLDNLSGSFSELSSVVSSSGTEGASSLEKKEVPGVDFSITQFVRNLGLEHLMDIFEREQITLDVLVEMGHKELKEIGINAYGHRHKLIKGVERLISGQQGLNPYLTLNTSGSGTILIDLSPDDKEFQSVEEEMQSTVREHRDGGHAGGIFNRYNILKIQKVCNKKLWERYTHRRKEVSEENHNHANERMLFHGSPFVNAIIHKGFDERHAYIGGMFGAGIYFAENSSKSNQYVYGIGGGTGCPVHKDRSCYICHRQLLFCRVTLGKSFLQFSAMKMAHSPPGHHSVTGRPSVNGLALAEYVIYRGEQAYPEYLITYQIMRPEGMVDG
Type: biochemical
Procedure, shortened: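 Commercial kit assay measuring TNKS2-catalysed incorporation of biotin-labelled NAD+ into a protein substrate, detected by streptavidin-HRP chemiluminescence. Run per manufacturer's protocol; IC50 is the concentration halving the normalised signal.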

IC50 [nM]	Structure (SMILES)
10	CC(CN1CCOCC1)NC(=O)c1[nH]cnc1C(=O)Nc1ccc(NC(=O)c2ccc(F)cc2Cl)cc1 (single isomer, unassigned; enantiomer 2) [Example 270, N^4-{4-[(2-chloro-4-fluorobenzoyl)amino]phenyl}-N^5-[1-(morpholin-4-yl)propan-2-yl]-1H-imidazole-4,5-dicarboxamide (enantiomer 2)]
10	CN(C)CCNC(=O)c1nc[nH]c1C(=O)Nc1ccc(NC(=O)c2ccc(F)cc2Cl)cc1 [Example 22, N^4-{4-[(2-chloro-4-fluorobenzoyl)amino]phenyl}-N^5-[2-(dimethylamino)ethyl]-1H-imidazole-4,5-dicarboxamide]
10	O=C(Nc1ccc(NC(=O)c2[nH]cnc2C(=O)NC2CC2)cc1)c1cc(F)c(F)cc1Cl [Example 51, N^5-{4-[(2-chloro-4,5-difluorobenzoyl)amino]phenyl}-N^4-cyclopropyl-1H-imidazole-4,5-dicarboxamide]
250	O=C(Nc1ccc(NC(=O)c2[nH]cnc2C(=O)N2CC3(COC3)C2)cc1)c1cc(F)c(F)cc1Cl [Example 52, N-{4-[(2-chloro-4,5-difluorobenzoyl)amino]phenyl}-4-(2-oxa-6-azaspiro[3.3]hept-6-ylcarbonyl)-1H-imidazole-5-carboxamide]
10	CNC(=O)c1nc[nH]c1C(=O)Nc1ccc(NC(=O)c2ccc(S(C)(=O)=O)cc2Cl)cc1 [Example 55, N^5-(4-{[2-chloro-4-(methylsulfonyl)benzoyl]amino}phenyl)-N^4-methyl-1H-imidazole-4,5-dicarboxamide]
60	CNC(=O)c1nc[nH]c1C(=O)Nc1ccc(NC(=O)c2ccc(F)cc2Br)cc1 [Example 56, N^5-{4-[(2-bromo-4-fluorobenzoyl)amino]phenyl}-N^4-methyl-1H-imidazole-4,5-dicarboxamide]
3	CNC(=O)c1nc[nH]c1C(=O)Nc1ccc(NC(=O)c2ccc(F)cc2I)cc1 [Example 61, N^5-{4-[(4-fluoro-2-iodobenzoyl)amino]phenyl}-N^4-methyl-1H-imidazole-4,5-dicarboxamide]
5	Cc1nc(C(=O)Nc2ccc(NC(=O)c3ccc(F)cc3Cl)cc2)c(C(=O)NCCN2CCCCC2)[nH]1 [Example 67, N^4-{4-[(2-chloro-4-fluorobenzoyl)amino]phenyl}-2-methyl-N^5-[2-(piperidin-1-yl)ethyl]-1H-imidazole-4,5-dicarboxamide]
< 0.5	C[C@@H]1CCCCN1CCNC(=O)c1[nH]cnc1C(=O)Nc1ccc(NC(=O)c2ccc(F)cc2Cl)cc1 [Example 267, N^4-{4-[(2-chloro-4-fluorobenzoyl)amino]phenyl}-N^5-{2-[(2R)-2-methylpiperidin-1-yl]ethyl}-1H-imidazole-4,5-dicarboxamide]
1	C[C@@H]1CCCN(CCNC(=O)c2[nH]cnc2C(=O)Nc2ccc(NC(=O)c3ccc(F)cc3Cl)cc2)C1 [Example 278, N^4-{4-[(2-chloro-4-fluorobenzoyl)amino]phenyl}-N^5-{2-[(3R)-3-methylpiperidin-1-yl]ethyl}-1H-imidazole-4,5-dicarboxamide]

Structure (SMILES)	IC50 [nM]
O=C(Nc1ccc(NC(=O)c2[nH]cnc2C(=O)NCCN2CCCCC2)cc1)c1ccc(F)cc1Cl [Example 32, N^4-{4-[(2-chloro-4-fluorobenzoyl)amino]phenyl}-N^5-[2-(piperidin-1-yl)ethyl]-1H-imidazole-4,5-dicarboxamide]	1
